These are literature values, as cited in patent US20240207289A1 (priority 2022, published 2024).

For the series, the target named is Cannabinoid-2 (CB2R) receptor (Homo sapiens, UniProt P34972).
Cannabinoid-2 (CB2R) receptor, sequence (P34972 whole entry): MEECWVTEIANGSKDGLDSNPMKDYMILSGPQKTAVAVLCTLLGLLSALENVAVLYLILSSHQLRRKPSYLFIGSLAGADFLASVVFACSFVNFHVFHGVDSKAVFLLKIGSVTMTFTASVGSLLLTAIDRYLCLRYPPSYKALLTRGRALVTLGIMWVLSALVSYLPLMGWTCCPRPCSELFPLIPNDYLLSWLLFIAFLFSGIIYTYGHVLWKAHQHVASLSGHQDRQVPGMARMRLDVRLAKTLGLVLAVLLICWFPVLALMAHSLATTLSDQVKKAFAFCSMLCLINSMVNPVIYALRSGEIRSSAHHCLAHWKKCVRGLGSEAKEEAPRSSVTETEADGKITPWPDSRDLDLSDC

In the case of `CCCCCc1cc(O)c2c(c1)OC(C)(C)[C@@H]1CCC(C)=C[C@@H]21` [THC, delta-9-tetrahydrocannabinol], the “activity at Cannabinoid-2 receptor” value is on record as “weak partial agonist activity”.
